From ChEMBL document CHEMBL1697781, “Assessment of the health effects of chemicals in humans: II. Construction of an adverse effects database for QSAR modeling” (Curr Drug Discov Technol, 2004) come the findings set out here.
Throughout, for GGT Increase - Index Value: reference of the scale not given here.
Throughout, for LDH Increase - Index Value: reference of the scale not given here.

The subject of one data set is Hepatotoxicity. In words: FDA HLAED, serum glutamic pyruvic transaminase (SGPT) increase. To be noted: human.
With `CC(C)(C)NC[C@H](O)COc1cccc2c1CCCC2=O` [LEVOBUNOLOL], the “SGPT Increase - Activity Score” value was “Inactive”, the “SGPT Increase - Index Value” stood at 0 and the “SGPT Increase - Number of Reports” value is less than 4.
For `C[C@@H]1CN([C@H]2CC[C@](C#N)(c3ccc(F)cc3)CC2)CC[C@]1(C(=O)O)c1ccccc1` [LEVOCABASTINE], the “SGPT Increase - Activity Score” value is listed as “Inactive”, the “SGPT Increase - Index Value” came out at 0 and the “SGPT Increase - Number of Reports” value is reported as less than 4.
Consider `C[N+](C)(C)C[C@H](O)CC(=O)[O-]` [LEVOCARNITINE], for which the “SGPT Increase - Activity Score” value is “Inactive”, the “SGPT Increase - Index Value” was 0 and the “SGPT Increase - Number of Reports” value is on record as less than 4.
As for `C[C@H]1COc2c(N3CCN(C)CC3)c(F)cc3c(=O)c(C(=O)O)cn1c23.C[C@H]1COc2c(N3CCN(C)CC3)c(F)cc3c(=O)c(C(=O)O)cn1c23.O` [LEVOFLOXACIN], the “SGPT Increase - Activity Score” value was “Inactive”, the “SGPT Increase - Index Value” was 0 and the “SGPT Increase - Number of Reports” value is given as less than 4.
For `C#C[C@]1(O)CC[C@H]2[C@@H]3CCC4=CC(=O)CC[C@@H]4[C@H]3CC[C@@]21CC` [LEVONORGESTREL], the “SGPT Increase - Activity Score” value was “Active”, the “SGPT Increase - Index Value” came out at 22.7 and the “SGPT Increase - Number of Reports” value is on record as “>= 4”.
In the case of `NCCCC[C@H](N[C@@H](CCc1ccccc1)C(=O)O)C(=O)N1CCC[C@H]1C(=O)O` [LISINOPRIL ANHYDROUS], the “SGPT Increase - Activity Score” value is “Inactive”, the “SGPT Increase - Index Value” is listed as 1.4 and the “SGPT Increase - Number of Reports” value is on record as “>= 4”.

The subject of a further data set is Hepatotoxicity. In words: FDA HLAED, serum glutamic oxaloacetic transaminase (SGOT) increase. Conditions: human.
For `CC(C)(C)NC[C@H](O)COc1cccc2c1CCCC2=O` [LEVOBUNOLOL], the “SGOT Increase - Activity Score” value is on record as “Inactive”, the “SGOT Increase - Index Value” was 0 and the “SGOT Increase - Number of Reports” value is less than 4.
Regarding `C[C@@H]1CN([C@H]2CC[C@](C#N)(c3ccc(F)cc3)CC2)CC[C@]1(C(=O)O)c1ccccc1` [LEVOCABASTINE], the “SGOT Increase - Activity Score” value is given as “Inactive”, the “SGOT Increase - Index Value” was determined as 0 and the “SGOT Increase - Number of Reports” value is less than 4.
As for `C[N+](C)(C)C[C@H](O)CC(=O)[O-]` [LEVOCARNITINE], the “SGOT Increase - Activity Score” value is given as “Inactive”, the “SGOT Increase - Index Value” was 0 and the “SGOT Increase - Number of Reports” value is given as less than 4.
For the compound `C[C@H]1COc2c(N3CCN(C)CC3)c(F)cc3c(=O)c(C(=O)O)cn1c23.C[C@H]1COc2c(N3CCN(C)CC3)c(F)cc3c(=O)c(C(=O)O)cn1c23.O` [LEVOFLOXACIN], the “SGOT Increase - Activity Score” value is listed as “Inactive”, the “SGOT Increase - Index Value” is 0 and the “SGOT Increase - Number of Reports” value is given as less than 4.
For `C#C[C@]1(O)CC[C@H]2[C@@H]3CCC4=CC(=O)CC[C@@H]4[C@H]3CC[C@@]21CC` [LEVONORGESTREL], in that order: “Active”, 39.7 and “>= 4”.
Consider `NCCCC[C@H](N[C@@H](CCc1ccccc1)C(=O)O)C(=O)N1CCC[C@H]1C(=O)O` [LISINOPRIL ANHYDROUS], for which the “SGOT Increase - Activity Score” value is on record as “Inactive”, the “SGOT Increase - Index Value” was found to be 1.5 and the “SGOT Increase - Number of Reports” value is “>= 4”.

A further data set deals with Hepatotoxicity. In words: FDA HLAED, gamma-glutamyl transferase (GGT) increase. Conditions: human.
For `CC(C)(C)NC[C@H](O)COc1cccc2c1CCCC2=O` [LEVOBUNOLOL], the “GGT Increase - Activity Score” value was “Inactive”, the “GGT Increase - Index Value” was determined as 0 and the “GGT Increase - Number of Reports” value is on record as less than 4.
As for `C[C@@H]1CN([C@H]2CC[C@](C#N)(c3ccc(F)cc3)CC2)CC[C@]1(C(=O)O)c1ccccc1` [LEVOCABASTINE], the “GGT Increase - Activity Score” value was “Inactive”, the “GGT Increase - Index Value” turned out to be 0 and the “GGT Increase - Number of Reports” value is less than 4.
In the case of `C[N+](C)(C)C[C@H](O)CC(=O)[O-]` [LEVOCARNITINE], the “GGT Increase - Activity Score” value is given as “Inactive”, the “GGT Increase - Index Value” amounted to 0 and the “GGT Increase - Number of Reports” value is on record as less than 4.
In the case of `C[C@H]1COc2c(N3CCN(C)CC3)c(F)cc3c(=O)c(C(=O)O)cn1c23.C[C@H]1COc2c(N3CCN(C)CC3)c(F)cc3c(=O)c(C(=O)O)cn1c23.O` [LEVOFLOXACIN], the “GGT Increase - Activity Score” value is “Inactive”, the “GGT Increase - Index Value” stood at 0 and the “GGT Increase - Number of Reports” value is recorded as less than 4.
Turning to `C#C[C@]1(O)CC[C@H]2[C@@H]3CCC4=CC(=O)CC[C@@H]4[C@H]3CC[C@@]21CC` [LEVONORGESTREL], the “GGT Increase - Activity Score” value is given as “Active”, the “GGT Increase - Index Value” is reported as 34 and the “GGT Increase - Number of Reports” value was “>= 4”.
On to `NCCCC[C@H](N[C@@H](CCc1ccccc1)C(=O)O)C(=O)N1CCC[C@H]1C(=O)O` [LISINOPRIL ANHYDROUS], for which the “GGT Increase - Activity Score” value is on record as “Inactive”, the “GGT Increase - Index Value” is reported as 1 and the “GGT Increase - Number of Reports” value is “>= 4”.

A further data set relates to Hepatotoxicity. The data set can be described thus: FDA HLAED, alkaline phosphatase increase. To be noted: human.
With `CC(C)(C)NC[C@H](O)COc1cccc2c1CCCC2=O` [LEVOBUNOLOL], the “Alkaline Phosphatase Increase - Activity Score” value is “Inactive”, the “Alkaline Phosphatase Increase - Index Value” came out at 0 and the “Alkaline Phosphatase Increase - Number of Reports” value is listed as less than 4.
In the case of `C[C@@H]1CN([C@H]2CC[C@](C#N)(c3ccc(F)cc3)CC2)CC[C@]1(C(=O)O)c1ccccc1` [LEVOCABASTINE], the “Alkaline Phosphatase Increase - Activity Score” value is listed as “Inactive”, the “Alkaline Phosphatase Increase - Index Value” is on record as 0 and the “Alkaline Phosphatase Increase - Number of Reports” value is given as less than 4.
Consider `C[N+](C)(C)C[C@H](O)CC(=O)[O-]` [LEVOCARNITINE], for which the “Alkaline Phosphatase Increase - Activity Score” value is reported as “Inactive”, the “Alkaline Phosphatase Increase - Index Value” was 0 and the “Alkaline Phosphatase Increase - Number of Reports” value is on record as less than 4.
Take `C[C@H]1COc2c(N3CCN(C)CC3)c(F)cc3c(=O)c(C(=O)O)cn1c23.C[C@H]1COc2c(N3CCN(C)CC3)c(F)cc3c(=O)c(C(=O)O)cn1c23.O` [LEVOFLOXACIN]: the “Alkaline Phosphatase Increase - Activity Score” value is on record as “Inactive”, the “Alkaline Phosphatase Increase - Index Value” is listed as 0 and the “Alkaline Phosphatase Increase - Number of Reports” value is less than 4.
For the compound `C#C[C@]1(O)CC[C@H]2[C@@H]3CCC4=CC(=O)CC[C@@H]4[C@H]3CC[C@@]21CC` [LEVONORGESTREL], the “Alkaline Phosphatase Increase - Activity Score” value is reported as “Active”, the “Alkaline Phosphatase Increase - Index Value” came to 34 and the “Alkaline Phosphatase Increase - Number of Reports” value is “>= 4”.
The matching figures for `NCCCC[C@H](N[C@@H](CCc1ccccc1)C(=O)O)C(=O)N1CCC[C@H]1C(=O)O` [LISINOPRIL ANHYDROUS]: “Inactive”, 2 and “>= 4”.

For a further data set, the system named is Hepatotoxicity. In words: FDA HLAED, lactate dehydrogenase (LDH) increase. Conditions: human.
For the compound `CC(C)(C)NC[C@H](O)COc1cccc2c1CCCC2=O` [LEVOBUNOLOL], the “LDH Increase - Activity Score” value was “Inactive”, the “LDH Increase - Index Value” came out at 0 and the “LDH Increase - Number of Reports” value is given as less than 4.
In the case of `C[C@@H]1CN([C@H]2CC[C@](C#N)(c3ccc(F)cc3)CC2)CC[C@]1(C(=O)O)c1ccccc1` [LEVOCABASTINE], the “LDH Increase - Activity Score” value was “Inactive”, the “LDH Increase - Index Value” was 0 and the “LDH Increase - Number of Reports” value is listed as less than 4.
Take `C[N+](C)(C)C[C@H](O)CC(=O)[O-]` [LEVOCARNITINE]: the “LDH Increase - Activity Score” value is given as “Inactive”, the “LDH Increase - Index Value” amounted to 0 and the “LDH Increase - Number of Reports” value was less than 4.
As for `C[C@H]1COc2c(N3CCN(C)CC3)c(F)cc3c(=O)c(C(=O)O)cn1c23.C[C@H]1COc2c(N3CCN(C)CC3)c(F)cc3c(=O)c(C(=O)O)cn1c23.O` [LEVOFLOXACIN], the “LDH Increase - Activity Score” value was “Inactive”, the “LDH Increase - Index Value” is 0 and the “LDH Increase - Number of Reports” value was less than 4.
Regarding `C#C[C@]1(O)CC[C@H]2[C@@H]3CCC4=CC(=O)CC[C@@H]4[C@H]3CC[C@@]21CC` [LEVONORGESTREL], the “LDH Increase - Activity Score” value was “Active”, the “LDH Increase - Index Value” is on record as 28.3 and the “LDH Increase - Number of Reports” value is reported as “>= 4”.
For the compound `NCCCC[C@H](N[C@@H](CCc1ccccc1)C(=O)O)C(=O)N1CCC[C@H]1C(=O)O` [LISINOPRIL ANHYDROUS], the “LDH Increase - Activity Score” value is reported as “Inactive”, the “LDH Increase - Index Value” is 1.2 and the “LDH Increase - Number of Reports” value is listed as “>= 4”.

Another data set deals with Hepatotoxicity. The data set can be described thus: FDA HLAED, liver enzyme composite activity. Conditions: human.
On to `CC(C)(C)NC[C@H](O)COc1cccc2c1CCCC2=O` [LEVOBUNOLOL], for which the “Composite Activity - Active” value is recorded as 0, the “Composite Activity - Marginal” value is on record as 0 and the “Composite Activity - Score” value is on record as “Inactive”.
As for `C[C@@H]1CN([C@H]2CC[C@](C#N)(c3ccc(F)cc3)CC2)CC[C@]1(C(=O)O)c1ccccc1` [LEVOCABASTINE], the “Composite Activity - Active” value came out at 0, the “Composite Activity - Marginal” value was determined as 0 and the “Composite Activity - Score” value is given as “Inactive”.
For the compound `C[N+](C)(C)C[C@H](O)CC(=O)[O-]` [LEVOCARNITINE], the “Composite Activity - Active” value was 0, the “Composite Activity - Marginal” value is on record as 0 and the “Composite Activity - Score” value was “Inactive”.
As to `C[C@H]1COc2c(N3CCN(C)CC3)c(F)cc3c(=O)c(C(=O)O)cn1c23.C[C@H]1COc2c(N3CCN(C)CC3)c(F)cc3c(=O)c(C(=O)O)cn1c23.O` [LEVOFLOXACIN], the “Composite Activity - Active” value worked out at 0, the “Composite Activity - Marginal” value stood at 0 and the “Composite Activity - Score” value was “Inactive”.
For `NCCCC[C@H](N[C@@H](CCc1ccccc1)C(=O)O)C(=O)N1CCC[C@H]1C(=O)O` [LISINOPRIL ANHYDROUS], the “Composite Activity - Active” value worked out at 0, the “Composite Activity - Marginal” value worked out at 0 and the “Composite Activity - Score” value is “Inactive”.

The data set is the same for the next values; noted with them: human, Liver.
With `C#C[C@]1(O)CC[C@H]2[C@@H]3CCC4=CC(=O)CC[C@@H]4[C@H]3CC[C@@]21CC` [LEVONORGESTREL], the “Composite Activity - Active” value is reported as 5, the “Composite Activity - Marginal” value is listed as 0 and the “Composite Activity - Score” value is recorded as “Active”.
